We go through 14 compounds from patent US10112918B2, “15-oxospiramilactone derivatives, preparation method and uses thereof” (Kunming Institute of Botany, The Chinese Academy of Sciences, priority 2013, dated 2018).

What all share (assay type): cell-based
In assay [1] the test system is HL-60 (human promyelocytic leukemia cells). Briefly: MTT inhibition of tumor cell growth, HL-60. Conditions: Homo sapiens. In outline:
(§1)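 Compound exposure lasts 48 h at 37° C on cells plated at 5000-10000 per well in serum-containing medium. Viability is read by MTT reduction at 595 nm, and IC50 is computed with the two-point Reed and Muench method.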

Assay [2] concerns SMMC-7721 (human hepatoma cells). Briefly: MTT inhibition of tumor cell growth, SMMC-7721. The settings on record: Homo sapiens. A digest of the protocol:
as §1

Assay [3] concerns A-549 (Human lung adenocarcinoma cells). The experiment in a line: MTT inhibition of tumor cell growth, A-549. The settings on record: Homo sapiens. A digest of the protocol:
as §1

The subject of assay [4] is MCF-7 (human breast cancer cells). Briefly: MTT inhibition of tumor cell growth, MCF-7. The settings on record: Homo sapiens. In outline: as §1
Assay [5] deals with SW-480 (human colon cancer cells). The experiment in a line: MTT inhibition of tumor cell growth, SW-480. The settings on record: Homo sapiens. A digest of the protocol: as §1
The subject of assay [6] is Wnt signaling pathway (Top-Flash reporter gene). Briefly: Top-Flash Wnt reporter gene assay in HEK293T cells with Wnt3a conditioned medium. Conditions: Homo sapiens, HEK-293T, 6 h, 6 h. A digest of the protocol: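 HEK293T transfected with TOP-flash (5 ng/well) plus GFP plasmid for normalization, then treated 6 h with mouse Wnt3a conditioned medium from L cells, with or without compound. GFP-normalized luciferase minus DMSO-only background, scaled to Wnt-induced activity; IC50 at 0.5 relative residual activity from 4-parameter logistic fit.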
On the technique in general: Reporter assays use an easily measured gene product as a stand-in for the process of interest.

Where [7] appears, read: HL-60, 48 h, Table 5, derivatives having double Michael reaction acceptor.
[8] abbreviates: SMMC-7721, 48 h, Table 5, derivatives having double Michael reaction acceptor.
Where [9] appears, read: A549, 48 h, Table 5, derivatives having double Michael reaction acceptor.
The mark [10] stands for this setting: MCF7, 48 h, Table 5, derivatives having double Michael reaction acceptor.
Setting [11] is: SW480, 48 h, Table 5, derivatives having double Michael reaction acceptor, read-out: IC50 SW-480.
The mark [12] stands for this setting: SW480, 48 h, Table 6, double Michael reaction acceptor derivatives, read-out: IC50 SW-480, derivatives having double Michael reaction acceptor.
[13] abbreviates: Table 9, HEK293T, Wnt3a conditioned medium, read-out: IC50(μM), inhibitory activity on the Wnt signaling pathway.
[14] abbreviates: HL-60, 48 h, Table 4, derivatives obtained by reduction of the lactonic ring.
[15] abbreviates: SMMC-7721, 48 h, Table 4, derivatives obtained by reduction of the lactonic ring.
The mark [16] stands for this setting: A549, 48 h, Table 4, derivatives obtained by reduction of the lactonic ring.
The mark [17] stands for this setting: MCF7, 48 h, Table 4, derivatives obtained by reduction of the lactonic ring.
The mark [18] stands for this setting: SW480, 48 h, Table 4, derivatives obtained by reduction of the lactonic ring, read-out: IC50 SW-480.
The mark [19] stands for this setting: Table 8, HEK293T, Wnt3a conditioned medium, read-out: IC50 (μM), inhibitory activity on the Wnt signaling pathway.
The mark [20] stands for this setting: HL-60, 48 h, Table 2, derivatives having potential Michael reaction acceptor.
Setting [21] is: SMMC-7721, 48 h, Table 2, derivatives having potential Michael reaction acceptor.
[22] abbreviates: A549, 48 h, Table 2, derivatives having potential Michael reaction acceptor.
Setting [23] is: MCF7, 48 h, Table 2, derivatives having potential Michael reaction acceptor.
The mark [24] stands for this setting: SW480, 48 h, Table 2, derivatives having potential Michael reaction acceptor, read-out: IC50 SW-480.
The mark [25] stands for this setting: HL-60, Table 7 (first), alkaloid derivatives, 48 h.
[26] abbreviates: SMMC-7721, Table 7 (first), alkaloid derivatives, 48 h.
[27] abbreviates: A549, Table 7 (first), alkaloid derivatives, 48 h.
[28] abbreviates: MCF7, Table 7 (first), alkaloid derivatives, 48 h.
Setting [29] is: SW480, Table 7 (first), alkaloid derivatives, 48 h, read-out: IC50 SW-480.
[30] abbreviates: read-out: IC50 (μM), inhibitory activity on the Wnt signaling pathway.

Like-named read-outs stand apart in the source and are kept apart here.

The IC50 is the concentration needed to halve the response being measured. As for `C=C1C(=O)C23CC[C@@H](CC2[C@]2(COC(C)=O)CCC[C@@](C)(COC(=O)c4cccs4)C12)C(=C)C3=O` (stereo partly shown) [Compound 67], the IC50 was determined as 0.24 µM in assay [1] (setting [7]); 0.13 µM in assay [2] (setting [8]); 0.14 µM in assay [3] (setting [9]); 0.15 µM in assay [4] (setting [10]); 0.1 µM in assay [5] (setting [11]); 0.13 µM in assay [5] (setting [12]). Further, in assay [6] (setting [13]), the IC50 is 4.92 ± 0.69 µM.

As to `C=C1C(=O)C23CC[C@H]1CC2[C@]1(COS(C)(=O)=O)CCC[C@@](C)(COS(C)(=O)=O)C1C[C@H]3O` (stereo partly shown) [Compound 72a], the IC50 worked out at 1.37 µM in assay [1] (setting [14]); 0.93 µM in assay [2] (setting [15]); 1.86 µM in assay [3] (setting [16]); 1.55 µM in assay [4] (setting [17]); 1.85 µM in assay [5] (setting [18]); 2.23 µM in assay [5] (SW480, 48 h, Table 6, 7-hydroxyl derivatives and controls, read-out: IC50 SW-480, 7-hydroxyl derivatives). For the same compound, the IC50 in assay [6] (setting [19]) was 12.6 ± 1.04 µM.

For the compound `C=C1C(=O)C23CC[C@H]1CC2[C@]1(COS(C)(=O)=O)CCC[C@@](C)(COS(C)(=O)=O)C1CC3=O` (stereo partly shown) [Compound 73a], the concentration for half-maximal inhibition (IC50) was 3.97 µM in assay [1] (setting [14]); 0.77 µM in assay [2] (setting [15]); 2.89 µM in assay [3] (setting [16]); 2.36 µM in assay [4] (setting [17]); 2.57 µM in assay [5] (setting [18]); 2.57 µM in assay [5] (SW480, 48 h, Table 6, 7-carbonyl derivatives, read-out: IC50 SW-480, 7-carbonyl derivatives). The IC50 in assay [6] (setting [19]) worked out at 43 ± 5.35 µM.

As to `C=C1C(=O)C23CC[C@@H](CC2[C@]2(COS(C)(=O)=O)CCC[C@@](C)(COS(C)(=O)=O)C12)C(=C)C3=O` (stereo partly shown) [Compound 74a], the IC50 in assay [1] (setting [7]) came to 0.51 µM; in assay [2] (setting [8]), 0.26 µM; in assay [3] (setting [9]) it was 0.56 µM; in assay [4] (setting [10]) it was 0.53 µM; in assay [5] (setting [11]) it was 0.15 µM; in assay [5] (setting [12]), 0.65 µM. Further, the 50% inhibitory concentration (IC50) in assay [6] (setting [13]) worked out at 11.2 ± 1.54 µM.

On to `C[C@]12CCC[C@@]3(C(=O)OC1)C1C[C@@H]4CCC1(C(=O)[C@H]4CN1CCOCC1)[C@H](O)CC23` (stereo partly shown) [Compound 75], for which the half-inhibitory concentration (IC50) is 3.78 µM in assay [1] (setting [20]); 5.97 µM in assay [2] (setting [21]); 3.64 µM in assay [3] (setting [22]); 4.12 µM in assay [4] (setting [23]); 8.01 µM in assay [5] (setting [24]); over 60 µM in assay [6] (setting [13]).

For the compound `C[C@]12CCC[C@@]3(C(=O)OC1)C1C[C@@H]4CCC1(C(=O)[C@@H]4CN1CCOCC1)[C@H](O)CC23` (stereo partly shown) [Compound 76], the IC50 in assay [1] (setting [20]) is 5.28 µM; in assay [2] (setting [21]), 13.1 µM; in assay [3] (setting [22]) it was 4.04 µM; in assay [4] (setting [23]), 5.96 µM; in assay [5] (setting [24]), 7.69 µM; in assay [6] (setting [13]), over 60 µM.

For the compound `C=C1C(=O)[C@]23CC[C@H]1CC2[C@@]12CCC[C@@]4(C)C5OCCN5C1O[C@@H]3CC42` (stereo partly shown) [Compound 77], the IC50 in assay [1] (setting [25]) was 1.34 µM; in assay [2] (setting [26]) it was 1.04 µM; in assay [3] (setting [27]), 2.03 µM; in assay [4] (setting [28]), 0.67 µM; in assay [5] (setting [29]), 1.97 µM; in assay [6] (setting [30]), over 60 µM.

Take `C=C1C(=O)[C@]23CC[C@H]1CC2[C@@]12CCC[C@@](C)(C(=O)N4CCO[C@H]41)C2C[C@H]3O` (stereo partly shown) [Compound 78]: the IC50 was determined as 2.73 µM in assay [1] (HL-60, 48 h, Table 7 (first), alkaloid derivatives); 2.63 µM in assay [2] (SMMC-7721, 48 h, Table 7 (first), alkaloid derivatives); 3.09 µM in assay [3] (A549, 48 h, Table 7 (first), alkaloid derivatives); 1.12 µM in assay [4] (MCF7, 48 h, Table 7 (first), alkaloid derivatives); 2.81 µM in assay [5] (SW480, 48 h, Table 7 (first), alkaloid derivatives, read-out: IC50 SW-480); 28.7 ± 0.97 µM in assay [6] (Table 11, HEK293T, Wnt3a conditioned medium, read-out: IC50 (μM), inhibitory activity on the Wnt signaling pathway).

`C=C1C(=O)[C@]23CC[C@H]1CC2[C@@]12CCC[C@@]4(C)C(=O)N(CCO)[C@@H]1O[C@@H]3CC24` (stereo partly shown) [Compound 83]: the concentration for half-maximal inhibition (IC50) is 18.6 µM in assay [1] (setting [25]); 18.4 µM in assay [2] (setting [26]); 17.9 µM in assay [3] (setting [27]); 13.2 µM in assay [4] (setting [28]); 12.4 µM in assay [5] (setting [29]); over 60 µM in assay [6] (setting [30]).

With `C=C1C(=O)[C@]23CC[C@H]1CC2[C@@]12CCC[C@@]4(C)C(=O)N[C@@H]1O[C@@H]3CC24` (stereo partly shown) [Compound 84], the concentration for half-maximal inhibition (IC50) amounted to 18.6 µM in assay [1] (setting [25]); 15.7 µM in assay [2] (setting [26]); 19 µM in assay [3] (setting [27]); 15.7 µM in assay [4] (setting [28]); 14.2 µM in assay [5] (setting [29]); 60.6 ± 3.09 µM in assay [6] (setting [30]).

`C=C1C(=O)[C@]23CC[C@H]1CC2[C@@]12CCC[C@@](C)(CN(CCO)C1)C2C[C@H]3O` (stereo partly shown) [Compound 88]: the IC50 is 7.95 µM in assay [1] (setting [25]); 11.2 µM in assay [2] (setting [26]); 9.92 µM in assay [3] (setting [27]); 16.6 µM in assay [4] (setting [28]); 14.4 µM in assay [5] (setting [29]); over 60 µM in assay [6] (setting [30]).

With `C=C1C(=O)[C@@]23CC[C@@H](CC2[C@@]24CCC[C@@](C)(CN(CCO)C2)C14)C(=C)[C@@H]3O` (stereo partly shown) [Compound 89], the IC50 in assay [1] (setting [25]) is 4.82 µM; in assay [2] (setting [26]) it was 1.48 µM; in assay [3] (setting [27]), 3.04 µM; in assay [4] (setting [28]), 6.98 µM; in assay [5] (setting [29]), 9.84 µM; in assay [6] (setting [30]), 8.34 ± 0.9 µM.

For the compound `C=C1C(=O)[C@]23CC[C@H]1CC2[C@@]12CCC[C@@](C)(CN(CCO)C1)C2CC3=O` (stereo partly shown) [Compound 91], the concentration for half-maximal inhibition (IC50) in assay [1] (setting [25]) worked out at 14.3 µM; in assay [2] (setting [26]) it was 15.2 µM; in assay [3] (setting [27]), 9.24 µM; in assay [4] (setting [28]) it was 15.7 µM; in assay [5] (setting [29]) it was 11.8 µM; in assay [6] (setting [30]) it was 49.4 ± 1.42 µM.

As for `C=C1C(=O)[C@@]23CC[C@@H](CC2[C@@]24CCC[C@@](C)(CN(CCO)C2)C14)C(=C)C3=O` (stereo partly shown) [Compound 93], the IC50 in assay [1] (setting [25]) turned out to be 6.61 µM; in assay [2] (setting [26]) it was 11.5 µM; in assay [3] (setting [27]), 6.5 µM; in assay [4] (setting [28]), 3.57 µM; in assay [5] (setting [29]), 2.81 µM; in assay [6] (setting [30]), 17 ± 1.28 µM.
